Experimental data taken from PMC5625157, “Lack of clinically important PK interaction between coformulated ledipasvir/sofosbuvir and rilpivirine/emtricitabine/tenofovir alafenamide” (Pharmacology Research & Perspectives, 2017).
Read-outs that look alike come from different tables or passages of the source. Each block holds one molecule with its values, some of them ahead of it.

Tests used:
[1] = Phase 1 crossover drug-drug interaction study, plasma pharmacokinetics by HPLC-MS/MS, non-compartmental analysis; details: for effect of coadministered LDV/SOF on exposure (C max, AUC tau): LDV/SOF + R/F/TAF vs R/F/TAF; for effect of coadministered LDV/SOF on exposure (C max, AUC tau) / effect of coadministered R/F/TAF on exposure (C max, AUC tau): result in words; for C tau / AUC / Cmax / AUC(0-t): mean (%CV); for AUC / Cmax / Tmax / half-life / AUC(0-t): human; for AUC: AUCtau, healthy subjects, fed, multiple dose; for Cmax: C max; for Tmax: T max; for effect of coadministered R/F/TAF on exposure (C max, AUC tau): LDV/SOF + R/F/TAF vs LDV/SOF; for AUC(0-t): AUClast;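 for all read-outs here: blood sampled at steady state on final dosing day, predose through 24 h after dose, study drug given shortly after standardized breakfast, with isotopically labeled internal standards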
[2] = in vivo; for C max / T max / t 1/2: human
clinical = details: human, in vivo; for AUC: AUCtau, healthy subjects, fed, multiple dose; for AUC / Cmax: plasma, mean (%CV); for Cmax: C max; for half-life: median (first quartile, third quartile)
[3] = cited from earlier work
[4] = set-up: method as in German et al. 2014; details: ref German et al. 2014, cited from earlier work
[5] = Reference: R/F/TAF (N = 42), plasma
[6] = Test: LDV/SOF + R/F/TAF (N = 42), plasma
[7] = plasma, oral, Reference: R/F/TAF (N = 42), plasma
[8] = plasma, oral, Test: LDV/SOF + R/F/TAF (N = 42), plasma
[9] = plasma, oral, t 1/2, Reference: R/F/TAF (N = 42), median (first quartile, third quartile)
[10] = plasma, oral, t 1/2, Test: LDV/SOF + R/F/TAF (N = 42), median (first quartile, third quartile)
[11] = test LDV/SOF + R/F/TAF vs reference R/F/TAF
[12] = Test: LDV/SOF + R/F/TAF (N = 42)
[13] = t 1/2, Reference: LDV/SOF (N = 41)
[14] = t 1/2, Test: LDV/SOF + R/F/TAF (N = 42)
[15] = Reference: LDV/SOF (N = 41), median (first quartile, third quartile)
[16] = test LDV/SOF + R/F/TAF vs reference LDV/SOF
[17] = in vivo, Reference: R/F/TAF (N = 42), plasma
[18] = in vivo, Test: LDV/SOF + R/F/TAF (N = 42), plasma

- effect of coadministered LDV/SOF on exposure (C max, AUC tau) [1]: no effect
- C tau [1, 5]: 88 (28) ng/mL
- C tau [1, 6]: 89 (25) ng/mL
- AUC [1, 7]: 10800 ng·h/mL
- AUC [1, 8]: 10800 ng·h/mL
- Cmax [1, 7]: 1710 ng/mL
- Cmax [1, 8]: 1650 ng/mL
- Tmax ([1]; plasma, oral, Reference: R/F/TAF (N = 42), median (first quartile, third quartile)): 2.5 h
- Tmax ([1]; plasma, oral, Test: LDV/SOF + R/F/TAF (N = 42), median (first quartile, third quartile)): 3 h
- half-life [1, 9]: 6.5 h
- half-life [1, 10]: 5.1 h
- GLSM ratio (test/reference) of AUCtau [1, 11]: 100%
- GLSM ratio (test/reference) of C max [1, 11]: 97%
- GLSM ratio (test/reference) of C tau [1, 11]: 102%
SMILES: Nc1nc(=O)n([C@@H]2CS[C@H](CO)O2)cc1F [FTC, emtricitabine]

- C max [2]: 884 (14) ng/mL
- T max [2]: 4.5 (4.0, 4.5) h
- t 1/2 [2]: 16.7 (13.8, 21.9) h
- C tau [2]: 340 (16) ng/mL
SMILES: C[C@@]1(F)[C@H](O)[C@@H](CO)O[C@H]1n1ccc(=O)[nH]c1=O [GS‐331007]

- C max [2]: 510 (20) ng/mL
- T max [2]: 3.0 (2.0, 4.0) h
- t 1/2 [2]: 2.2 (2.0, 2.5) h
SMILES: C[C@H](NP(=O)(O)OC[C@H]1O[C@@H](n2ccc(=O)[nH]c2=O)[C@](C)(F)[C@@H]1O)C(=O)O [GS‐566500]

SMILES: COC(=O)N[C@H](C(=O)N1CC2(CC2)C[C@H]1c1ncc(-c2ccc3c(c2)C(F)(F)c2cc(-c4ccc5nc([C@@H]6[C@H]7CC[C@H](C7)N6C(=O)[C@@H](NC(=O)OC)C(C)C)[nH]c5c4)ccc2-3)[nH]1)C(C)C [LDV, ledipasvir]
- AUC (clinical; Reference: LDV/SOF (N = 41)): 11600 ng·h/mL
- AUC (clinical; [12]): 11900 ng·h/mL
- Cmax (clinical; Reference: LDV/SOF (N = 41)): 647 ng/mL
- Cmax (clinical; [12]): 658 ng/mL
- half-life (clinical; [13]): 32.6 h
- half-life (clinical; [14]): 31.3 h
- effect of coadministered R/F/TAF on exposure (C max, AUC tau) [1]: did not noticeably increase
- effect of coadministered R/F/TAF on exposure (C max, AUC tau) ([1]; listed as ledipasvir): no relevant effect
- T max [1, 15]: 4.5 (4.5, 5.0) h
- C tau ([1]; Reference: LDV/SOF (N = 41), plasma): 420 (46) ng/mL
- C tau [1, 6]: 434 (47) ng/mL
- GLSM ratio (test/reference) of AUCtau [1, 16]: 102%
- GLSM ratio (test/reference) of C max [1, 16]: 101%
- GLSM ratio (test/reference) of C tau [1, 16]: 102%

SMILES: Cc1cc(/C=C/C#N)cc(C)c1Nc1ccnc(Nc2ccc(C#N)cc2)n1 [RPV, rilpivirine]
- Tmax (clinical): 5 h
- effect of coadministered LDV/SOF on exposure (C max, AUC tau) [1]: no effect
- C tau [1, 5]: 109 (32) ng/mL
- T max ([1]; Test: LDV/SOF + R/F/TAF (N = 42), median (first quartile, third quartile)): 4.0 (4.0, 5.0) h
- C tau [1, 6]: 100 (26) ng/mL
- AUC [1, 7]: 3040 ng·h/mL
- AUC [1, 8]: 2860 ng·h/mL
- Cmax [1, 7]: 203 ng/mL
- Cmax [1, 8]: 197 ng/mL
- half-life [1, 9]: 32.8 h
- half-life [1, 10]: 30.4 h
- GLSM ratio (test/reference) of AUCtau [1, 11]: 95%
- GLSM ratio (test/reference) of C max [1, 11]: 97%
- GLSM ratio (test/reference) of C tau [1, 11]: 93%

SMILES: CC(C)OC(=O)[C@H](C)N[P@](=O)(OC[C@H]1O[C@@H](n2ccc(=O)[nH]c2=O)[C@](C)(F)[C@@H]1O)Oc1ccccc1 [SOF, sofosbuvir]
- AUC (clinical; Reference: LDV/SOF (N = 41)): 2910 ng·h/mL
- AUC (clinical; [12]): 3070 ng·h/mL
- Cmax (clinical; Reference: LDV/SOF (N = 41)): 1470 ng/mL
- Cmax (clinical; [12]): 1390 ng/mL
- half-life (clinical; [13]): 0.5 h
- half-life (clinical; [14]): 0.5 h
- effect of coadministered R/F/TAF on exposure (C max, AUC tau) [1]: did not noticeably increase
- effect of coadministered R/F/TAF on exposure (C max, AUC tau) ([1]; listed as sofosbuvir): no relevant effect
- T max [1, 15]: 2.0 (1.5, 3.0) h
- GLSM ratio (test/reference) of AUCtau [1, 16]: 105%
- GLSM ratio (test/reference) of C max [1, 16]: 96%

SMILES: CC(C)OC(=O)[C@H](C)N[P@](=O)(CO[C@H](C)Cn1cnc2c(N)ncnc21)Oc1ccccc1 [TAF, tenofovir alafenamide]
- lower plasma tenofovir exposure compared to TDF 300 mg ([3]; TAF 25 mg vs TDF 300 mg, reference not given): ~ 90%
- less plasma TFV exposures than TDF ([3]; TAF vs TDF, ref Sax et al. 2015, Zack et al. 2016, Gilead Sciences Inc, 2017b): 80–90%
- effect of coadministered LDV/SOF on exposure (C max, AUC tau) [1]: no effect
- t 1/2 ([1]; Reference: R/F/TAF (N = 42), median (first quartile, third quartile)): 0.5 (0.4, 0.6) h
- AUC(0-t) [1, 17]: 277 ng·h/mL
- AUC(0-t) [1, 18]: 362 ng·h/mL
- Cmax [1, 17]: 200 ng/mL
- Cmax [1, 18]: 205 ng/mL
- Tmax ([1]; in vivo, Reference: R/F/TAF (N = 42), median (first quartile, third quartile)): 1.5 h
- Tmax ([1]; in vivo, Test: LDV/SOF + R/F/TAF (N = 42), median (first quartile, third quartile)): 1.8 h
- GLSM ratio (test/reference) of AUClast [1, 11]: 132%
- GLSM ratio (test/reference) of C max [1, 11]: 103%

- C tau [1, 5]: 9 (25) ng/mL
- C tau [1, 6]: 17 (22) ng/mL
- AUC [1, 7]: 268 ng·h/mL
- AUC [1, 8]: 467 ng·h/mL
- Cmax [1, 7]: 16 ng/mL
- Cmax [1, 8]: 25 ng/mL
- half-life [1, 9]: 32 h
- half-life [1, 10]: 44.5 h
- GLSM ratio (test/reference) of AUCtau [1, 11]: 175%
- GLSM ratio (test/reference) of C max [1, 11]: 162%
- GLSM ratio (test/reference) of C tau [1, 11]: 185%
SMILES: C[C@H](Cn1cnc2c(N)ncnc21)OCP(=O)(O)O [TFV, tenofovir]
- increase in TFV exposure ([4]; R/F/TDF coadministered with LDV/SOF compared to R/F/TDF alone): 40%
- TFV exposure ([4]; R/F/TDF coadministered with LDV/SOF): 4,780 ng·h/mL
